Values quoted from earlier work in PubChem BioAssay AID1259409 (Chemical Carcinogenesis Research Information System (CCRIS), 2018).

Test system: rodent chemically induced tumor inhibition, incidence and multiplicity
Assay: CCRIS tumor inhibitor studies
Settings: for outcome: Carcinogen: SUBCUTANEOUS, Dose [Inhibitor]: 1,2-DIMETHYLHYDRAZINE, 540-73-8, Route [Inhibitor]: 0, 20 UG/ML IN DRINKING WATER 14 HR/D AT NIGHT TIME FOR 6 MO (STUDY DURATION: 6 MO), Dose [Carcinogen]: NONE

SMILES: COc1ccc2[nH]cc(CCNC(C)=O)c2c1
- tumour outcome (control, treated, inhibition, significance) (Carcinogen: N,N-DIETHYLNITROSAMINE [55-18-5], Dose [Inhibitor]: 400 PPM IN DIET, BEGINNING 1 WK AFTER FINAL CARCINOGEN DOSE, FOR STUDY DURATION (STUDY DURATION: 24 WK), Route [Inhibitor]: ORAL, Species: RAT, Strain/Sex: F344/MALE, Target Tissue: Type of Lesion: LIVER: HEPATOCELLULAR ADENOMA AND CARCINOMA, Dose [Carcinogen]: 100 MG/KG BW, 1/WK FOR 3 WK, Promoter: PHENOBARBITAL [50-06-6]): 24/24 (100%), 15/23 (65%), 35%, p<0.002
- tumour outcome (control, treated, inhibition, significance) (Carcinogen: N,N-DIETHYLNITROSAMINE [55-18-5], Dose [Inhibitor]: 400 PPM IN DIET, BEGINNING 1 WK AFTER FINAL CARCINOGEN DOSE, FOR STUDY DURATION (STUDY DURATION: 24 WK), Route [Inhibitor]: ORAL, Species: RAT, Strain/Sex: F344/MALE, Target Tissue: Type of Lesion: LIVER: HEPATOCELLULAR ADENOMA, Dose [Carcinogen]: 100 MG/KG BW, 1/WK FOR 3 WK, Promoter: PHENOBARBITAL [50-06-6]): 24/24 (100%), 9/23 (39%), 61%, p<0.001
- tumour outcome (control, treated, inhibition, significance) (Carcinogen: N-METHYL-N-NITROSOUREA [684-93-5], Dose [Inhibitor]: 0, 20 MG/L IN DRINKING WATER 15 HR/D FOR 3 D BEGINNING 2 D PRIOR TO CARCINOGEN DOSE (STUDY DURATION: LIFETIME), Route [Inhibitor]: ORAL, Species: RAT, Strain/Sex: LIO/FEMALE, Target Tissue: Type of Lesion: TUMORS, Dose [Carcinogen]: 50 MG/KG BW ONCE (STUDY DURATION: LIFETIME), Promoter: NONE): 12/24 (50%), 8/23 (34.8%), 30.4%, not significant
- tumour outcome (control, treated, inhibition, significance) (Carcinogen: N-METHYL-N-NITROSOUREA [684-93-5], Dose [Inhibitor]: 8.2 MG IN 20 µL OIL CONCENTRATE BY PIPET AT THE BASE OF THE TONGUE 1X/D FOR 20 WK BEGINNING 11 D POST FIRST CARCINOGEN D, Route [Inhibitor]: ORAL, Species: RAT, Strain/Sex: SPRAGUE-DAWLEY/FEMALE, Target Tissue: Type of Lesion: MAMMARY GLAND: TUMOR, Dose [Carcinogen]: 50 MG/KG BW 1X/WK FOR 2 WK (STUDY DURATION: 22 WK), Promoter: NONE): 88%, 80%, 9%, not significant
- tumour outcome (control, treated, inhibition, significance) (Carcinogen: N-METHYL-N-NITROSOUREA [684-93-5], Dose [Inhibitor]: 20 UG/ML IN DRINKING WATER 17 HR/D FOR 20 WK BEGINNING 12 D POST FIRST CARCINOGEN DOSE (STUDY DURATION: 22 WK), Route [Inhibitor]: ORAL, Species: RAT, Strain/Sex: SPRAGUE-DAWLEY/FEMALE, Target Tissue: Type of Lesion: MAMMARY GLAND: TUMOR, Dose [Carcinogen]: 50 MG/KG BW 1X/WK FOR 2 WK (STUDY DURATION: 22 WK), Promoter: NONE): 88%, 61%, 31%, not significant
- tumour outcome (control, treated, inhibition, significance) (Carcinogen: N-METHYL-N-NITROSOUREA [684-93-5], Dose [Inhibitor]: 20 UG/ML IN DRINKING WATER, 17 HR/D BEGINNING 5 D BEFORE FIRST CARCINOGEN DOSE FOR 27 WK (STUDY DURATION: 27 WK), Route [Inhibitor]: ORAL, Species: RAT, Strain/Sex: SPRAGUE-DAWLEY/FEMALE, Target Tissue: Type of Lesion: MAMMARY GLAND: TUMOR, Dose [Carcinogen]: 50 MG/KG BW TWICE ON POSTNATAL DAYS 51 AND 58): 17/18 (94%), 14/19 (73.7%), 22%, not significant
- tumour outcome (control, treated, inhibition, significance) (Carcinogen: N-METHYL-N-NITROSOUREA, 684-93-5, Dose [Inhibitor]: 0, 4 UG/ML IN DRINKING WATER 17 HR/D STARTING BEFORE CARCINOGEN TREATMENT FOR THE DURATION OF THE STUDY (STUDY DURATION:, Route [Inhibitor]: SUBCUTANEOUSLY, Species: RAT, Strain/Sex: SPRAGUE-DAWLEY/FEMALE, Target Tissue: Type of Lesion: MAMMARY GLAND: TUMOR, Dose [Carcinogen]: 50 MG/KG BW 2/WK FOR 1 WK BW 43-54 POSTNATAL DAYS): 80%, 65%, 19%, not significant
- tumour outcome (control, treated, inhibition, significance) (Carcinogen: N-METHYL-N-NITROSOUREA, 684-93-5, Dose [Inhibitor]: 0, 20 UG/ML IN DRINKING WATER FOR 17 HR/D FOR THE DURATION OF STUDY (STUDY DURATION: 180 D), Route [Inhibitor]: ORAL, Species: RAT, Strain/Sex: SPRAGUE-DAWLEY/FEMALE, Target Tissue: Type of Lesion: MAMMARY GLAND: TUMOR, Dose [Carcinogen]: 50 MG/G BW ONCE/WK FOR 2 WK BEGINNING 12 D POST INHIBITOR TREATMENT, Promoter: NONE): 16/20 (80%), 9/16 (56.3%), 30%, not significant
- tumour outcome (control, treated, inhibition, significance) (Carcinogen: NONE USED, Dose [Inhibitor]: 0, 25 UG/MOUSE/D IN DRINKING WATER FROM DAYS 21-45 OF AGE THEN 50 UG/D FOR DURATION OF STUDY (STUDY DURATION: 12 MO), Route [Inhibitor]: ORAL, Species: MOUSE, Strain/Sex: C3H/JAX/FEMALE, Target Tissue: Type of Lesion: MAMMARY GLAND: ADENOCARCINOMA): 10/16 (63%), 9/39 (23%), 63%, p<0.02
- outcome (Species: RAT, Strain/Sex: LIO/FEMALE, Target Tissue: Type of Lesion: 7/21 (33%), 4/21 (19%), 42%, NOT SIGNIFICANT): 0.4, 0.2, 50%, not significant
- outcome (Species: RAT, Strain/Sex: LIO/FEMALE, Target Tissue: Type of Lesion: 12/21 (57%), 3/21 (4%), 93%, P<0.01): 0.8, 0.1, 88%, p<0.01
- outcome (Species: RAT, Strain/Sex: LIO/FEMALE, Target Tissue: Type of Lesion: 20/21 (95%), 12/21 (57%), 40%, P<0.01): 2.8, 1.2, 57%, p<0.01
